Entries after “also recorded” stand apart in the source; their conditions may differ.
Columns and labels:
[1] = tested on: CCI rats (chronic constriction of the sciatic nerve of Wistar rats); test: neuropathic pain rat model CCI, von Frey filaments; format: in vivo
Excerpt: FIG. 4 illustrates behavioral readouts as measures of pain during treatment with nitenin on a Neuropatic pain rat model CCI (Chronic constriction injury). Typical experiment using a group of Wistar rats subjected to four unilateral sciatic nerve constrictions. Values refer to the mechanical sensitivity to stimulation using calibrated von Frey Filaments, and consequently reflecting hyperalgesia when hypersensitive (black filled markers—ipsilateral, operated leg; Open markers—contralateral, uninjured leg). Dotted line refers to the average value of the ipsilateral paw prior to surgery. a) Induction of the model showing that 3 days after operation, the mechanical sensitivity of the ipsilateral limb increases markedly, whereas the one associated with the contralateral leg remained unchanged, similar to baseline values. This tendency is maintained during 26 days after surgery, day that treatment with nitenin was performed (circle with dotted line). b) Effect of intravenous injection of nitenin (estimated plasma concentration of 1 μg/ml) on the mechanical sensitivity of the ipsilateral leg. For clarity, the data of the contralateral limb is not shown but it remains unaltered. […]
For efficacy studies, nociception was assessed in all animals from all pain models by regular behavioural monitoring, by quantifying the sensitivity to mechanical stimuli with Von Frey filaments, and consequently reflecting hyperalgesia when hypersensitive. […] Intraperitoneal administration was tested in CFA rats (23 days after CFA injection), with 10 times the nitenin quantity administered by I.V. injections. […]

STZ rats = test: diabetic neuropathic pain rat model STZ, von Frey filaments; format: in vivo; conditions: I.V. 1 μg/mL of blood; 60 days after STZ
Procedure: […]
For efficacy studies, nociception was assessed in all animals from all pain models by regular behavioural monitoring, by quantifying the sensitivity to mechanical stimuli with Von Frey filaments, and consequently reflecting hyperalgesia when hypersensitive. […] Intraperitoneal administration was tested in CFA rats (23 days after CFA injection), with 10 times the nitenin quantity administered by I.V. injections. […] Oral administration of nitenin through stomach gavages (endogastric), with 100 times the quantity administered by I.V. injections, was tested in CCI rats (31 days after surgery). […]

In the case of `C/C(=C\C1C/C(=C/CCc2ccoc2)C(=O)O1)CCCc1ccoc1` (stereo not shown) [nitenin], the “behavioural scores of the contralateral (uninjured) paw” value ([1]; I.V. 1 μg/mL of blood) is reported as “no changes”, the “mechanical sensitivity of ipsilateral paw (von Frey)” value ([1]; I.V. 1 μg/mL of blood ~0.06 mg/Kg, acute (3 days) and chronic (22 to 31 days)) is reported as “reaching values not different to those obtained during baseline; also recorded: noticeable decrease of sensitivity to mechanical stimuli” and the “time of maximum effect after injection” value ([1]; intravenous, estimated plasma concentration 1 μg/ml, 26 days after surgery) is reported as roughly 1 h. The “mechanical sensitivity in the hypersensitive paws” value (STZ rats) was “decrease of mechanical sensitivity”.

Source: patent US12336977B2, “Nitenin analogue compounds and their use in the treatment of chronic and acute pain” (SEA4US-BIOTECNOLOGIA E RECURSOS MARINHOS, LDA., priority 2019, dated 2025)
